Earlier results on two compounds are cited in publication PMC10743905, “Design, Synthesis, and In Vitro and In Vivo Bioactivity Studies of Hydrazide–Hydrazones of 2,4-Dihydroxybenzoic Acid” (International Journal of Molecular Sciences, 2023).

The structures appear in SMILES notation. ≈ marks a conversion by molar mass, not a printed value.

Series [1] concerns Staphylococcus aureus MRSA strain. Further details: method as in PMID 23510516. The following applies: cited from earlier work.
The test system of another series is Pasteurella multocida. Details: method as in PMID 23510516. Particulars: cited from earlier work.
The subject of the next series is MCF-7 cell line. Further details: method as in PMID 34578985. Particulars: MCF-7 breast cancer cell line; cited from earlier work.
The next series concerns Neisseria gonorrhoeae. Details: method as in PMID 23510516. The following applies: cited from earlier work.
Another series deals with MDA-MB-231 cell line. Further details: method as in PMID 34578985. Particulars: MDA-MB-231 breast cancer cell line; cited from earlier work.
The next series relates to Enterococcus faecalis. Details: method as in PMID 23510516. The following applies: cited from earlier work.
The subject of the next series is Escherichia coli. Details: method as in PMID 23510516. The following applies: cited from earlier work.
A further series concerns HepG2 cells. Further details: method as in doi:10.1016/j.cclet.2016.10.020. Particulars: standard; cited from earlier work.

Regarding `O=C(O)c1ccc(O)cc1O` [2,4-dihydroxybenzoic acid], the MIC (commonly the least concentration at which growth counts as inhibited) in series [1] is 500 µg/mL (≈ 3.24 mM); in the series on Pasteurella multocida, 1000 µg/mL (≈ 6.49 mM); with Neisseria gonorrhoeae it was 1000 µg/mL (≈ 6.49 mM); in the series with Enterococcus faecalis, 1000 µg/mL (≈ 6.49 mM); in the series on Escherichia coli, 1000 µg/mL (≈ 6.49 mM). Further, the cytotoxicity entry in the series on MCF-7 cell line was “nontoxic”. Besides, in the series with MDA-MB-231 cell line, the IC50 (commonly the point on the concentration scale where inhibition reaches its midpoint) is 4.77 mM.
As to `COc1cccc2c1C(=O)c1c(O)c3c(c(O)c1C2=O)C[C@@](O)(C(=O)CO)C[C@@H]3O[C@H]1C[C@H](N)[C@H](O)[C@H](C)O1` [doxorubicin], in the series with HepG2 cells, the IC50 was 0.006 mM.
